Data from paper PMC6274214, “Antimicrobial Activity and Urease Inhibition of Schiff Bases Derived from Isoniazid and Fluorinated Benzaldehydes and of Their Copper(II) Complexes” (Molecules, 2016).

biological target: T1, jack bean urease (Canavalia ensiformis, UniProt P07374); test: phenol red pH-rise urease assay, […] nm, time from pH […] to […]; format: biochemical
T1 construct: native jack bean urease
T1 sequence (P07374 whole entry): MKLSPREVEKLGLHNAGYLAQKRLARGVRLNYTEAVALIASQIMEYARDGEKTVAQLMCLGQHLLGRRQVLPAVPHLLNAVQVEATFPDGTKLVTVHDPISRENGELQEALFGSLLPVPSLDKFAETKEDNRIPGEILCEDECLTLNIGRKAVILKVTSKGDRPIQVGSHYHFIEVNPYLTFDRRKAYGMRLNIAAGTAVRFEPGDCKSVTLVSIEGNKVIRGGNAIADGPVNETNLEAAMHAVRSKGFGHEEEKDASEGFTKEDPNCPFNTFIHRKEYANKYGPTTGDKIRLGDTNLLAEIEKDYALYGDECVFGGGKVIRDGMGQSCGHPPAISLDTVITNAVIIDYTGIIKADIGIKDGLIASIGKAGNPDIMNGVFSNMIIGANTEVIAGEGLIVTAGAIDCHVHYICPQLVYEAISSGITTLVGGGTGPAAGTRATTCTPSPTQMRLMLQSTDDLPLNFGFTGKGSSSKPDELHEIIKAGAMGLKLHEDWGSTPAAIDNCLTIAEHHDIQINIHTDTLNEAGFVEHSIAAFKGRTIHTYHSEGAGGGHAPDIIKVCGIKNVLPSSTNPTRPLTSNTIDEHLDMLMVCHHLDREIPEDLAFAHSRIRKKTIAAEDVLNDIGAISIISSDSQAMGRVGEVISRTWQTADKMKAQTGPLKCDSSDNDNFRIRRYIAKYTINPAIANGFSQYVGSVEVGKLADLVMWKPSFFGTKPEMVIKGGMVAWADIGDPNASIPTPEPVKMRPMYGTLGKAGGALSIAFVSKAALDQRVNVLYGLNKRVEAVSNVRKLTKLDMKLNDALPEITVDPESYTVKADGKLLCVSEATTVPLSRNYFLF

Row | Compound | IC50 [µM]
1 | CC(=O)NO [Acetohydroxamic acid, reference compound] | 185 ± 6.2
2 | O=C(NN=Cc1ccc(C(F)(F)F)cc1)c1ccncc1 [L1] | > 500
3 | O=C(NN=Cc1ccccc1C(F)(F)F)c1ccncc1 [L2, N-[[(2-trifluoromethyl)phenyl]methylidene]pyridine-4-carbohydrazide] | > 500
4 | O=C(NN=Cc1ccc(F)cc1)c1ccncc1 [L3, N-[(4-fluorophenyl)methylidene]pyridine-4-carbohydrazide monohydrate] | > 500
5 | O=C(NN=Cc1cc(F)ccc1O)c1ccncc1 [L4, N-[(5-fluoro-2-hydroxyphenyl)methylidene]pyridine-4-carbohydrazide] | > 500
6 | O=C(NN=Cc1cccc(F)c1O)c1ccncc1 [L5, N-[(3-fluoro-2-hydroxyphenyl)methylidene]pyridine-4-carbohydrazide] | > 500
7 | O=C(NN=Cc1ccccc1)c1ccncc1 [L6, N-(benzylidene)pyridine-4-carbohydrazide] | > 500
